# Reference: US10377770B2 (Novartis AG, priority 2015, dated 2019)
# pIC50: −log10 of the molar value.
# Molecular target: C-Raf FL (full length CRAF with Y340E and Y341E activating mutations, co-expressed with h14-3-3 zeta) (Homo sapiens (Human), UniProt P04049, Y340E/Y341E)
# Assay: In vitro Raf activity determination, AlphaScreen p-MEK readout, c-Raf (C-Raf FL)
# Type: biochemical
# Settings: c-Raf approximately 4 nM, ATP 1 μM, pre-incubation 60 minutes, reaction 1 hour
# Summary of the method: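 Phosphorylation of kinase-dead biotinylated MEK1 (~10 nM) by C-Raf FL (~4 nM) read by AlphaScreen luminescence with anti-phospho-MEK1/2 after EDTA stop. ATP was 1 μM, with a 1 h reaction at room temperature. Compounds were pre-incubated with enzyme and substrate for 60 min in Tris/MgCl2 buffer, pH 7.5.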
# Chain of C-Raf FL (full length CRAF with Y340E and Y341E activating mutations, co-expressed with h14-3-3 zeta) (P04049 whole entry Y340E/Y341E): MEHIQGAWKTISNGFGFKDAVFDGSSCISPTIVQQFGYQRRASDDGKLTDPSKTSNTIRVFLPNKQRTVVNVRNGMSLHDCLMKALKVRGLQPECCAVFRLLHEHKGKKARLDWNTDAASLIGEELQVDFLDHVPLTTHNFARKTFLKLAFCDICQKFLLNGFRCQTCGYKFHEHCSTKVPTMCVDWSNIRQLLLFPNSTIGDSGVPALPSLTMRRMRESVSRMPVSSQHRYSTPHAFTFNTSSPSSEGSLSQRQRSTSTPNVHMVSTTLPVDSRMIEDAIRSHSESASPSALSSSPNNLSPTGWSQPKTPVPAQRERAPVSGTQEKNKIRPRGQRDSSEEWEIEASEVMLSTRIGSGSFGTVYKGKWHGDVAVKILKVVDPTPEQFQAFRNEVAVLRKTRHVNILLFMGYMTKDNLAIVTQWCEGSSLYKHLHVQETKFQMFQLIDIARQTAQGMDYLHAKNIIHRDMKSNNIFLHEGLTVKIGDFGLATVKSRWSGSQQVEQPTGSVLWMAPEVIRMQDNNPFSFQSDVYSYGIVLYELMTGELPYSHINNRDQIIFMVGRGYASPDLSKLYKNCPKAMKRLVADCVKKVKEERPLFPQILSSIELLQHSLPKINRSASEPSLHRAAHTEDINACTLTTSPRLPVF
# Chain of C-Raf FL (full length CRAF with Y340E and Y341E activating mutations, co-expressed with h14-3-3 zeta) (P63104 whole entry partner): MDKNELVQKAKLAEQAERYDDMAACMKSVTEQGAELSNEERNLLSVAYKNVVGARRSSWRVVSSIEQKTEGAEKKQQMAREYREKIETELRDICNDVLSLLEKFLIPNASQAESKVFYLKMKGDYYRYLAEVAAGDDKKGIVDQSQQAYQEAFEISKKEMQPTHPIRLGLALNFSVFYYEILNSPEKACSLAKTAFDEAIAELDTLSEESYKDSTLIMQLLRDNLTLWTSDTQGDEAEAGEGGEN
row,Compound,pIC50
1,"CCN1C(=O)OC2COCCC2c2cc(-c3cc(NC(=O)c4cccc(C(F)(F)F)c4)cnc3C)cnc21 [Example 298, N-(5-((4aS,11bR- cis)-7-ethyl-6-oxo-2,4,4a,6,7,11b-hexahydro-1H-pyrano[4,3-f]pyrido[2,3-d][1,3]oxazepin-10-yl)-6-methylpyridin-3-yl)-3-(trifluoromethyl) benzamide]",9.52
2,"CCN1C(=O)OC2COCCC2c2cc(-c3cc(NC(=O)c4ccnc(C(F)(F)F)c4F)ccc3C)cnc21 [Example 299, N-(3-((4aS,11bR- cis)-7-ethyl-6-oxo-2,4,4a,6,7,11b-hexahydro-1H-pyrano[4,3-f]pyrido[2,3-d][1,3]oxazepin-10-yl)-4-methylphenyl)-3-fluoro-2-(trifluoromethyl) isonicotinamide]",10.00
3,"CCN1C(=O)OC2COCCC2c2cc(-c3cc(NC(=O)c4cccc(C(F)(F)F)c4F)cnc3C)cnc21 [Example 300, N-(5-((4aS,11bR- cis)-7-ethyl-6-oxo-2,4,4a,6,7,11b-hexahydro-1H-pyrano[4,3-f]pyrido[2,3-d][1,3]oxazepin-10-yl)-6-methylpyridin-3-yl)-2-fluoro-3-(trifluoromethyl) benzamide]",9.70
4,"CCN1C(=O)OC2COCCC2c2cc(-c3cc(NC(=O)c4ccnc(C(C)(F)F)c4)ccc3C)cnc21 [Example 302, 2-(1,1-difluoroethyl)-N-(3-((4aS,11bR-cis)-7-ethyl-6-oxo-2,4,4a,6,7,11b-hexahydro-1H-pyrano[4,3-f]pyrido[2,3-d][1,3]oxazepin-10-yl)-methylphenyl) isonicotinamide]",10.00
5,"CCN1C(=O)[C@@H]2COCC[C@H]2c2cc(-c3cc(NC(=O)c4cncc(C(F)(F)F)c4)ccc3C)cnc21 [Example 303, N-(3-((4aS,10bR)-6-ethyl-5-oxo-2,4,4a,5,6,10b-hexahydro-1H-pyrano[3,4-c][1,8]naphthyridin-9-yl)-4-methylphenyl)-5-(trifluoromethyl) nicotinamide]",10.00
6,"CCN1C(=O)O[C@H]2COCC[C@@H]2c2cc(-c3cc(NC(=O)c4ccnc(C(F)(F)F)c4F)ccc3C)cnc21 [Example 304, N-(3-((4aR, 11bR)-7-ethyl-6-oxo-2,4,4a,6,7,11b-hexahydro-1H-pyrano[4,3-f]pyrido[2,3-d][1,3]oxazepin-10-yl)-4-methylphenyl)-3-fluoro-2-(trifluoromethyl) isonicotinamide]",9.30
7,"CCN1C(=O)O[C@H]2COCC[C@@H]2c2cc(-c3cc(NC(=O)c4ccnc(C(F)(F)F)c4)ccc3C)cnc21 [Example 305, N-(3-((4aR,11bR)-7-ethyl-6-oxo-2,4,4a,6,7,11b-hexahydro-1H-pyrano[4,3-f]pyrido[2,3-d][1,3]oxazepin-10-yl)-4-methylphenyl)-2-(trifluoromethyl) isonicotinamide]",9.52
8,"Cc1ccc(NC(=O)c2cncc(C(F)(F)F)c2)cc1-c1cnc2c(c1)[C@@H]1CCOC[C@H]1C(=O)N2CCO [Example 306, N-(3-((4aS,10bR)-6-(2-hydroxyethyl)-5-oxo-2,4,4a,5,6,10b-hexahydro-1H-pyrano[3,4-c][1,8]naphthyridin-9-yl)-4-methylphenyl)-5-(trifluoromethyl) nicotinamide]",10.00
9,"Cc1ccc(NC(=O)c2ccnc(C(F)(F)F)c2F)cc1-c1cnc2c(c1)[C@@H]1CCOC[C@H]1C(=O)N2CCO [Example 307, 3-fluoro-N-(3 - ((4aS, 10bR)-6-(2-hydroxyethyl)-5-oxo-2,4,4a,5,6,10b-hexahydro-1H-pyrano[3,4-c][1,8]naphthyridin-9-yl)-4-methylphenyl)-2-(trifluoromethyl) isonicotinamide]",10.00
10,"CCN1C(=O)[C@H]2COCC[C@@H]2c2cc(-c3cc(NC(=O)c4cccc(C(F)(F)F)c4)cnc3C)cnc21 [Example 309, N-(5-((4aR, 10bS)-6-ethyl-5-oxo-1,4,4a,5,6,10b-hexahydro-2H-pyrano[3,4 - c][1,8]naphthyridin-9-yl)-6-methylpyridin-3-yl)-3-(trifluoromethyl) benzamide]",9.52
11,"CCN1C(=O)[C@H]2COCC[C@@H]2c2cc(-c3cc(NC(=O)c4ccnc(C(C)(C)F)c4)cnc3C)cnc21 [Example 310, N-(5-((4aR, 10bS)-6-ethyl-5-oxo-1,4,4a,5,6,10b-hexahydro-2H-pyrano[3,4-c][1,8]naphthyridin-9-yl)-6-methylpyridin-3-yl)-2-(2-fluoropropan-2-yl)isonicotinamide]",10.00
12,"CCN1C(=O)[C@@H]2COCC[C@H]2c2cc(-c3cc(NC(=O)c4ccnc(C(F)(F)F)c4)ccc3C)cnc21 [Example 311, N-(3-((4aS, 10bR)-6-ethyl-5-oxo-1,4,4a,5,6,10b-hexahydro-2H-pyrano[3,4 - c][1,8]naphthyridin-9-yl)-4-methylphenyl)-2-(trifluoromethyl) isonicotinamide]",10.00
13,"CCN1C(=O)[C@@H]2COCC[C@H]2c2cc(-c3cc(NC(=O)c4cccc(C(F)(F)F)c4)cnc3C)cnc21 [Example 312, N-(5-((4aS, 10bR)-6-ethyl-5-oxo-1,4,4a,5,6,10b-hexahydro-2H-pyrano[3,4-c][1,8]naphthyridin-9-yl)-6-methylpyridin-3-yl)-3-(trifluoromethyl) benzamide]",10.00
14,"CCN1C(=O)[C@@H]2COCC[C@H]2c2cc(-c3cc(NC(=O)c4ccnc(C(C)(C)F)c4)cnc3C)cnc21 [Example 313, N-(5-((4aS, 10bR)-6-ethyl-5-oxo-1,4,4a,5,6,10b-hexahydro-2H-pyrano[3,4-c][1,8]naphthyridin-9-yl)-6-methylpyridin-3-yl)-2-(2-fluoropropan-2-yl)isonicotinamide]",9.30
15,"CCN1C(=O)CC2CCOCCN2c2cc(-c3cc(NC(=O)c4ccnc(C(F)(F)F)c4)ccc3C)cnc21 (stereo not shown) [Example 314, N-(3-(8-ethyl-7-oxo-1,2,4,5,5a,6,7,8-octahydropyrido[3′, 2′:2,3][1,4]diazepino [1,7-d][1,4]oxazepin-11-yl)-4-methylphenyl)-2-(trifluoromethyl) isonicotinamide]",9.22
16,"CCN1C(=O)CC2CCOCCN2c2cc(-c3cc(NC(=O)c4cccc(C(F)(F)F)c4)cnc3C)cnc21 (stereo not shown) [Example 315, N-(5-(8-ethyl-7-oxo-1,2,4,5,5a,6,7,8-octahydropyrido[3′, 2′:2,3][1,4]diazepino [1,7-d][1,4]oxazepin-11-yl)-6-methylpyridin-3-yl)-3-(trifluoromethyl) benzamide]",8.77
17,"CCN1C(=O)CC2CCOCCN2c2cc(-c3cc(NC(=O)c4ccnc(C(F)(F)F)c4)ccc3C)cnc21 (stereo not shown) [Example 316, N-(3-(8-ethyl-7-oxo-1,2,4,5,5a,6,7,8-octahydropyrido[3′, 2′:2,3][1,4]diazepino [1,7-d][1,4]oxazepin-11-yl)-4-methylphenyl)-2-(trifluoromethyl) isonicotinamide]",9.10
18,"Cc1ccc(NC(=O)c2ccnc(C(F)(F)F)c2)cc1-c1cnc2c(c1)N1CCOCCC1CC(=O)N2CCO (stereo not shown) [Example 318, N-(3-(8-(2-hydroxyethyl)-7-oxo-1,2,4,5,5a,6,7,8-octahydropyrido[3′, 2′:2,3][1,4]diazepino [1,7-d][1,4]oxazepin-11-yl)-4-methylphenyl)-2-(trifluoromethyl) isonicotinamide]",8.85
19,"Cc1ncc(NC(=O)c2cccc(C(F)(F)F)c2)cc1-c1cnc2c(c1)N1CCOCCC1CC(=O)N2CCO (stereo not shown) [Example 319, N-(5-(8-(2-hydroxyethyl)-7-oxo-1,2,4,5,5a,6,7,8-octahydropyrido[3′, 2′:2,3][1,4]diazepino [1,7-d][1,4]oxazepin-11-yl)-6-methylpyridin-3-yl)-3-(trifluoromethyl) benzamide]",8.66
20,"Cc1ccc(NC(=O)c2ccnc(C(F)(F)F)c2F)cc1-c1cnc2c(c1)N1CCOC[C@H]1CC(=O)N2CCO [Example 322, (R)-3-fluoro-N-(3-(7-(2-hydroxyethyl)-6-oxo-2,4,4a,5,6,7-hexahydro-1H-[1,4]oxazino[4,3-d]pyrido[2,3-b][1,4]diazepin-10-yl)-4-methylphenyl)-2-(trifluoromethyl) isonicotinamide]",9.52
21,"Cc1ccc(NC(=O)c2cnnc(C(F)(F)F)c2)cc1-c1cnc2c(c1)N1CCOC[C@H]1CC(=O)N2CCO [Example 323, (R)-N-(3-(7-(2-hydroxyethyl)-6-oxo-2,4,4a,5,6,7-hexahydro-1H-[1,4]oxazino[4,3-d]pyrido[2,3-b][1,4]diazepin-10-yl)-4-methylphenyl)-6-(trifluoromethyl) pyridazine-4-carboxamide]",9.70
22,"Cc1ccc(NC(=O)c2cnnc(C(F)(F)F)c2)cc1-c1cnc2c(c1)N1CCOC[C@@H]1CC(=O)N2CCO [Example 324, (S)-N-(3-(7-(2-hydroxyethyl)-6-oxo-2,4,4a,5,6,7-hexahydro-1H-[1,4]oxazino[4,3-d]pyrido[2,3-b][1,4]diazepin-10-yl)-4-methylphenyl)-6-(trifluoromethyl) pyridazine-4-carboxamide]",9.10
23,"CCN1C(=O)C[C@@H]2COCCN2c2cc(-c3cc(NC(=O)c4cnnc(C(F)(F)F)c4)ccc3C)cnc21 [Example 325, (R)-N-(3-(7-ethyl-6-oxo-2,4,4a,5,6,7-hexahydro-1H-[1,4]oxazino[4,3-d]pyrido[2,3-b][1,4]diazepin-10-yl)-4-methylphenyl)-6-(trifluoromethyl) pyridazine-4-carboxamide]",10.00
24,"CCN1C(=O)C[C@H]2COCCN2c2cc(-c3cc(NC(=O)c4cnnc(C(F)(F)F)c4)ccc3C)cnc21 [Example 326, (S)-N-(3-(7-ethyl-6-oxo-2,4,4a,5,6,7-hexahydro-1H-[1,4]oxazino[4,3-d]pyrido[2,3-b][1,4]diazepin-10-yl)-4-methylphenyl)-6-(trifluoromethyl) pyridazine-4-carboxamide]",9.30
25,"CCN1C(=O)C[C@@H]2COCCN2c2cc(-c3cc(NC(=O)c4ccnc(C(F)(F)F)c4F)ccc3C)cnc21 [Example 327, (R)-N-(3-(7-ethyl-6-oxo-2,4,4a,5,6,7-hexahydro-1H-[1,4]oxazino[4,3-d]pyrido[2,3-b][1,4]diazepin-10-yl)-4-methylphenyl)-3-fluoro-2-(trifluoromethyl) isonicotinamide]",9.52
